These results are taken from ChEMBL document CHEMBL1130948, “Synthesis of sialyl Lewis X mimetics using the Ugi four-component reaction” (Bioorg Med Chem Lett, 1998).

Values joined by “and” are separate entries in the source; they are usually repeats but may differ in a detail not shown here. Identical values can stand only once. Active and inactive are the calls of the source. The rule behind the calls is not given here. Bounds are passed on as bounds.

Test [1] has as its target T1, E-selectin (Homo sapiens, UniProt P16581).
T1 sequence (P16581 whole entry): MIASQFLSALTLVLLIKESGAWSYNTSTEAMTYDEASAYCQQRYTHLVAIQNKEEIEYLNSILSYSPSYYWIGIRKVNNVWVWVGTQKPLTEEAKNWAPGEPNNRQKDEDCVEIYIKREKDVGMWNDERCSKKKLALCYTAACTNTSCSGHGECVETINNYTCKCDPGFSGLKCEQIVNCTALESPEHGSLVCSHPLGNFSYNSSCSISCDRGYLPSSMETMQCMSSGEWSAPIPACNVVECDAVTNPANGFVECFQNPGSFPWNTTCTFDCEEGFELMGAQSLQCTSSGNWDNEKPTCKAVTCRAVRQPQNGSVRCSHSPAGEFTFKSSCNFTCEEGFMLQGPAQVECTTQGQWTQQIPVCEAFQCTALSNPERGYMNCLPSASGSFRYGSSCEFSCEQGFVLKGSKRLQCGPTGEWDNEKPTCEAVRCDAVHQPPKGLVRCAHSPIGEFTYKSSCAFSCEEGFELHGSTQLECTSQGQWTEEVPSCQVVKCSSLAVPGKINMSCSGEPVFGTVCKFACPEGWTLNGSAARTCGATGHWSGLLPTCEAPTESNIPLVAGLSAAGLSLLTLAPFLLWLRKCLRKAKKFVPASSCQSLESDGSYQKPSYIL
As to the kind of experiment: Compound was tested in a cell-free SLe-polyacrylamide glycoconjugate binding assay (assay A) in Selectin E.

Test [2] concerns the target T1, E-selectin. As to the kind of experiment: Compound was tested in a cell-free SLe-polyacrylamide glycoconjugate binding assay (assay B) in Selectin E.
For test [3], the target named is T2, P-selectin (Homo sapiens, UniProt P16109).
T2 sequence (P16109 whole entry): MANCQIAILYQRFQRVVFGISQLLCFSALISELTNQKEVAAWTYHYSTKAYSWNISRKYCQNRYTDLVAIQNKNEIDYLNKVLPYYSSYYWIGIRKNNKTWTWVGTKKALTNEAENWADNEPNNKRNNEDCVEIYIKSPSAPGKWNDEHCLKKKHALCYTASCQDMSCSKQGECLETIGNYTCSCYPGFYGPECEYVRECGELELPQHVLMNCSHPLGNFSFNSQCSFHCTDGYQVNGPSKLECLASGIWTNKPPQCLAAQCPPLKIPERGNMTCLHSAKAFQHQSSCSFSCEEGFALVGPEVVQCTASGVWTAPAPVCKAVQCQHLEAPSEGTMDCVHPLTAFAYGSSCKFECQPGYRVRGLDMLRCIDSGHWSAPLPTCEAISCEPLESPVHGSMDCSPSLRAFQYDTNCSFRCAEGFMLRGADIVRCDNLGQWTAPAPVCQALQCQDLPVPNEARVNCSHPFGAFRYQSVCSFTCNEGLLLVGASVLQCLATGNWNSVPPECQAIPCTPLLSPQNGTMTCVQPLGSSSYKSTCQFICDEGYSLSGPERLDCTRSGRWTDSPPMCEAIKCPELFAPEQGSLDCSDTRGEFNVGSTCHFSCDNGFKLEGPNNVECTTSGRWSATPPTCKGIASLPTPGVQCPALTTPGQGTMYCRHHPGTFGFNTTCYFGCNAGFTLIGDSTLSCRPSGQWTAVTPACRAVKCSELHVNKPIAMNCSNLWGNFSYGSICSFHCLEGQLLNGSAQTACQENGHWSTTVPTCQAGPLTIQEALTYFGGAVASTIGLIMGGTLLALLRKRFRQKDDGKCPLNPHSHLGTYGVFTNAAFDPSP
The test can be described thus: Compound was tested in a cell-free SLe-polyacrylamide glycoconjugate binding assay (assay B) in P-selectin.

The target of test [4] is T3, E-selectin (Homo sapiens) (UniProt P16581).
T3 sequence (whole entry): T1 sequence (P16581 whole entry)
The test can be described thus: Inhibitory activity against E-selectin was tested in a cell-free SLe-polymer/Selectin E assay, at 3 mM concentration.

The target in test [5] is T2, P-selectin. The test can be described thus: Tested in a cell-free SLe-polyacrylamide glycoconjugate binding assay (assay A) in P-selectin.
For test [6], the target named is T1, E-selectin. As to the kind of experiment: Compound was tested in a cell-free SLe-polyacrylamide glycoconjugate binding assay (assay A) in Selectin E; inactive.
Test [7] concerns the target T2, P-selectin. The test can be described thus: Tested in a cell-free SLe-polyacrylamide glycoconjugate binding assay (assay A) in P-selectin; inactive.
The target of test [8] is T3, E-selectin (Homo sapiens). The test can be described thus: Compound was tested in a cell-free SLe-polymer/Selectin E assay, at 3 mM concentration.
For test [9], the target named is T3, E-selectin (Homo sapiens). As to the kind of experiment: Inhibitory activity against E-selectin was tested in a cell-free SLe-polymer/Selectin E assay, at 3 mM concentration; […].
In test [10] the target is T2, P-selectin. As to the kind of experiment: Compound was tested in a cell-free SLe-polyacrylamide glycoconjugate binding assay (assay A) in P-selectin; value ranges from 1-3.
Test [11] addresses T2, P-selectin. The test can be described thus: Compound was tested in a cell-free SLe-polyacrylamide glycoconjugate binding assay (assay B) in P-selectin; value ranges from 1.3-2.
Test [12] has as its target T4, P-selectin (Homo sapiens) (UniProt P16109).
T4 sequence (whole entry): T2 sequence (P16109 whole entry)
The note with it: 1 mM.
Description: Compound was tested in a cell-free SLe-polyacrylamide glycoconjugate binding assay (assay A) in P-selectin at 1 mM

The target of test [13] is T3, E-selectin (Homo sapiens). As to the kind of experiment: (§1) Compound was tested in a cell-free SLe-polyacrylamide glycoconjugate binding assay (assay A) in Selectin E at 3 mM.
Test [14] addresses T3, E-selectin (Homo sapiens). The test is described as §1. The source holds these as a separate data set.
In test [15] the target is T3, E-selectin (Homo sapiens). The test can be described thus: Inhibitory activity against E-selectin was tested in a cell-free SLe-polymer/Selectin E assay, at 3 mM concentration; […].

For orientation: IC50 means the concentration at which inhibition is half-maximal. Take `CC(C(=O)NC(C)(C)C)N(C(=O)CC1OC(COc2ccccc2)C(O)C(O)C1O)C(CCC(=O)O)C(=O)O` (stereo not drawn): the IC50 is greater than 3000 µM in test [1]; greater than 2500 µM in test [2]; 87 µM and 136 µM in test [3].

As a reminder, the inhibition is how much of the control response was suppressed. In test [4], `O=C(O)CNC(=O)C(CC1OC(CO)C(O)C(O)C1O)N(CC(=O)O)C(=O)Cc1ccc2ccccc2c1` (stereo not drawn) came in with an inhibition of 51%.

For `CC1OC(CC(=O)N(CC(=O)NC(CCC(=O)O)C(=O)O)C(CCc2ccc(Oc3ccc(Oc4ccccc4)cc3)cc2)C(=O)NCCc2ccccc2)C(O)C(O)C1O` (stereo not drawn), the values for the IC50 in [1], in test [2] and in [3] were 950 µM, greater than 2500 µM and 76 µM, respectively.

`CC(C(=O)NCCc1ccccc1)N(C(=O)CC1OC(COc2ccccc2)C(O)C(O)C1O)C(CCC(=O)O)C(=O)O` (stereo not drawn): the IC50 in [1] is greater than 3000 µM; in [2] it was greater than 2500 µM; in test [3] it was 311 µM and 85 µM.

`CCOCCOCCOCCOCCCCOCC1OC(CC(=O)N(C(C)C(=O)NCC(=O)OC)C(CCC(=O)O)C(=O)O)C(O)C(O)C1O` (stereo not drawn): the IC50 in test [5] is greater than 3000 µM; in test [1], 500 µM and 300 µM; in test [2], greater than 10000 µM; in test [3], 5 µM and 1 µM.

`CCCCCCCCCCCCCC(=O)N(CC(=O)O)C(CC1OC(CO)C(O)C(O)C1O)C(=O)NCC(=O)O` (stereo not drawn): the inhibition in [4] amounted to 32%.

Regarding `O=C(O)CCC(NC(=O)CC1OC(COCCCc2ccc(Oc3ccc(Oc4ccccc4)cc3)cc2)C(O)C(O)C1O)C(=O)O` (stereo not drawn), the IC50 is 34 µM in [5], 350 µM in test [1], greater than 10000 µM in [2] and 4 µM in test [3].

Regarding `O=C(O)CNC(=O)C(CC1OC(CO)C(O)C(O)C1O)N(CC(=O)O)C(=O)c1cccc2c1Cc1ccccc1-2` (stereo not drawn), the inhibition in [4] worked out at 48%.

`CCOCCOCCOCCOCCCCOCC1OC(CC(=O)NC(CCC(=O)O)C(=O)O)C(O)C(O)C1O` (stereo not drawn): the IC50 in [5] is greater than 3000 µM; in test [6] it was “Not Active”; in [2], greater than 10000 µM; in test [3], 20 µM.

For `COC(=O)CNC(=O)C(CCC(=O)O)N(C(=O)CC1OC(CO)C(O)C(O)C1O)C(CCC(=O)O)C(=O)O` (stereo not drawn), the IC50 result was “Not Active” in test [7], 3000 µM in test [1], greater than 4000 µM in [2] and 28 µM in test [3].

`O=C(O)CNC(=O)C(CC1OC(CO)C(O)C(O)C1O)N(CC(=O)O)C(=O)C(F)(F)F` (stereo not drawn) showed an inhibition in [8] of 42%.

As to `COC(=O)CNC(=O)C(C)N(C(=O)CC1OC(CO)C(O)C(O)C1O)C(CCC(=O)O)C(=O)O` (stereo not drawn), the IC50 was 360 µM and 1000 µM in test [1]; greater than 10000 µM in test [2].

As to `CCCCCC(=O)N(CC(=O)O)C(CC1OC(CO)C(O)C(O)C1O)C(=O)NCC(=O)O` (stereo not drawn), the inhibition in test [8] was found to be 52%.

In turn, `CC(=O)N(CC(=O)O)C(CC1OC(CO)C(O)C(O)C1O)C(=O)NCC(=O)O` (stereo not drawn) registered an inhibition in [8] of 28%.

In [1], `COC(=O)CNC(=O)C(CC1OC(C)C(O)C(O)C1O)N(Cc1ccccc1)C(=O)C(NC(=O)CCC(=O)O)C(O)CO` (stereo not drawn) yielded a 50% inhibitory concentration (IC50) of 840 µM.

With `O=C(O)CNC(=O)C(CC1OC(CO)C(O)C(O)C1O)N(CC(=O)O)C(=O)CC1c2ccccc2-c2ccccc21` (stereo not drawn), the inhibition entry in [9] was “inactive”.

On to `COC(=O)CNC(=O)C(C)N(C(=O)CC1OC(COCCCc2ccc(Oc3ccc(Oc4ccccc4)cc3)cc2)C(O)C(O)C1O)C(CCC(=O)O)C(=O)O` (stereo not drawn), for which the IC50 was 1000 µM in test [10]; 420 µM and 600 µM in test [1]; 3420 µM and 3620 µM in test [2]; 127 µM and 32 µM in [3].

In [4], `O=C(O)CNC(=O)C(CC1OC(CO)C(O)C(O)C1O)N(CC(=O)O)C(=O)c1ccccc1` (stereo not drawn) showed an inhibition of 38%.

Consider `O=C(O)CNC(=O)C(CC1OC(CO)C(O)C(O)C1O)N(CC(=O)O)C(=O)c1ccc(-c2ccccc2)cc1` (stereo not drawn), for which the inhibition entry in test [9] was “inactive”.

Turning to `COC(=O)CNC(=O)C(C)N(C(=O)CC1OC(COc2ccccc2)C(O)C(O)C1O)C(CCC(=O)O)C(=O)O` (stereo not drawn), the IC50 in [1] is 3400 µM and 2800 µM; in test [2] it was greater than 2500 µM; in [3] it was 41 µM and 43 µM.

As for `CC(=O)N[C@H]1[C@H]([C@H](O)[C@H](O)CO)O[C@@](O[C@H]2[C@@H](O)[C@@H](CO)O[C@@H](O[C@@H]([C@H](O[C@@H]3O[C@@H](C)[C@@H](O)[C@@H](O)[C@@H]3O)[C@H](C=O)NC(C)=O)[C@H](O)CO)[C@@H]2O)(C(=O)O)C[C@@H]1O` [SIALYL LEWIS X], the IC50 was greater than 3000 µM in test [5], 480 µM in [1], 1300 µM in test [11] and 1090 µM in test [2].

As for `O=C(O)CNC(=O)C(CC1OC(CO)C(O)C(O)C1O)N(CC(=O)O)C(=O)Cc1cccc2ccccc12` (stereo not drawn), the inhibition in test [4] came to 42%.

Consider `O=C(O)CCC(=O)N(C(CCC(=O)O)C(=O)O)C(CC1OC(CO)C(O)C(O)C1O)C(=O)NCC(=O)O` (stereo not drawn), for which the IC50 entry in [7] was “Not Active”; in test [2] it was greater than 4000 µM; in test [3], 18 µM and 25 µM. Also, the results for the inhibition in test [12], in [13] and in test [14] were 29%, 45% and 45%, respectively.

For the compound `CC1OC(CC(C(=O)NCCc2ccccc2)N(CC(=O)NC(CCC(=O)O)C(=O)O)C(=O)CCc2ccc(Oc3ccc(Oc4ccccc4)cc3)cc2)C(O)C(O)C1O` (stereo not drawn), the IC50 in [5] was 283 µM; in test [1] it was 530 µM; in [2], greater than 4000 µM; in test [3], 28 µM.

`O=C(O)CCC(C(=O)O)N(C(=O)CC1OC(CO)C(O)C(O)C1O)C(CCC(=O)O)C(=O)NCC(=O)O` (stereo not drawn): the IC50 entry in test [7] is “Not Active”; in test [1] it was 3000 µM; in test [2], greater than 4000 µM; in test [3], 15 µM.

Turning to `COC(=O)CCC(=O)N(C(CCC(=O)O)C(=O)O)C(CC1OC(CO)C(O)C(O)C1O)C(=O)NCC(=O)OC` (stereo not drawn), the 50% inhibitory concentration (IC50) entry in [7] was “Not Active”; in test [1], 3000 µM and > 3000 µM; in test [2] it was greater than 4000 µM; in test [3], 39 µM and 142 µM.

On to `C/C=C/C=C/C(=O)N(CC(=O)O)C(CC1OC(CO)C(O)C(O)C1O)C(=O)NCC(=O)O` (stereo not drawn), for which the inhibition result in test [15] was “inactive”.
